# System: Unknown protein yeast genes
# Test: DNA chip mRNA expression in yeast, unknown protein yeast genes (Table 1)
# Format: cell-based, Saccharomyces cerevisiae S288C
# In short: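 Value is the scanned fluorescence intensity ratio of exposed versus chemical-free cells. Log-phase S288C yeast in YPD at 25° C. received one toxic substance for two hours, dosed to slow growth without killing; Cy3/Cy5-labeled cDNA from oligo-dT-purified mRNA was hybridized to a whole-genome chip at 65° C.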
smiles,measurement,setting,value
"C=CC=O [(14), acrolein]",The level of expressed mRNA in the presence of chemical substance/The level of expressed mRNA in the absence of chemical substance,"yeast gene YKL195W, incubated two hours with chemical substance",1.6
same,The level of expressed mRNA in the presence of chemical substance/The level of expressed mRNA in the absence of chemical substance,"yeast gene YKR091W, incubated two hours with chemical substance",1.9
same,The level of expressed mRNA in the presence of chemical substance/The level of expressed mRNA in the absence of chemical substance,"yeast gene YLR054C, incubated two hours with chemical substance",1.1
same,The level of expressed mRNA in the presence of chemical substance/The level of expressed mRNA in the absence of chemical substance,"yeast gene YLR149C, incubated two hours with chemical substance",1.2
same,The level of expressed mRNA in the presence of chemical substance/The level of expressed mRNA in the absence of chemical substance,"yeast gene YLR152C, incubated two hours with chemical substance",1.2
same,The level of expressed mRNA in the presence of chemical substance/The level of expressed mRNA in the absence of chemical substance,"yeast gene YLR194C, incubated two hours with chemical substance",1.2
same,The level of expressed mRNA in the presence of chemical substance/The level of expressed mRNA in the absence of chemical substance,yeast gene YLR297W,2.3
same,The level of expressed mRNA in the presence of chemical substance/The level of expressed mRNA in the absence of chemical substance,"yeast gene YLR324W, incubated two hours with chemical substance",1.4
same,The level of expressed mRNA in the presence of chemical substance/The level of expressed mRNA in the absence of chemical substance,"yeast gene YLR350W, incubated two hours with chemical substance",2.8
same,The level of expressed mRNA in the presence of chemical substance/The level of expressed mRNA in the absence of chemical substance,"yeast gene YLR387C, incubated two hours with chemical substance",1.7
same,The level of expressed mRNA in the presence of chemical substance/The level of expressed mRNA in the absence of chemical substance,yeast gene YLR460C,3.5
same,The level of expressed mRNA in the presence of chemical substance/The level of expressed mRNA in the absence of chemical substance,"yeast gene YML117W, incubated two hours with chemical substance",0.8
same,The level of expressed mRNA in the presence of chemical substance/The level of expressed mRNA in the absence of chemical substance,"yeast gene YMR009W, incubated two hours with chemical substance",1.9
same,The level of expressed mRNA in the presence of chemical substance/The level of expressed mRNA in the absence of chemical substance,"yeast gene YMR067C, incubated two hours with chemical substance",1.5
same,The level of expressed mRNA in the presence of chemical substance/The level of expressed mRNA in the absence of chemical substance,yeast gene YMR090W,6.5
same,The level of expressed mRNA in the presence of chemical substance/The level of expressed mRNA in the absence of chemical substance,"yeast gene YMR095C, incubated two hours with chemical substance",2.2
same,The level of expressed mRNA in the presence of chemical substance/The level of expressed mRNA in the absence of chemical substance,"yeast gene YMR097C, incubated two hours with chemical substance",2.1
same,The level of expressed mRNA in the presence of chemical substance/The level of expressed mRNA in the absence of chemical substance,"yeast gene YMR102C, incubated two hours with chemical substance",0.7
same,The level of expressed mRNA in the presence of chemical substance/The level of expressed mRNA in the absence of chemical substance,"yeast gene YMR107W, incubated two hours with chemical substance",8.1
same,The level of expressed mRNA in the presence of chemical substance/The level of expressed mRNA in the absence of chemical substance,"yeast gene YMR180C, incubated two hours with chemical substance",1.7
same,The level of expressed mRNA in the presence of chemical substance/The level of expressed mRNA in the absence of chemical substance,"yeast gene YMR184W, incubated two hours with chemical substance",1.5
same,The level of expressed mRNA in the presence of chemical substance/The level of expressed mRNA in the absence of chemical substance,"yeast gene YMR191W, incubated two hours with chemical substance",1.5
same,The level of expressed mRNA in the presence of chemical substance/The level of expressed mRNA in the absence of chemical substance,"yeast gene YMR295C, incubated two hours with chemical substance",1.3
same,The level of expressed mRNA in the presence of chemical substance/The level of expressed mRNA in the absence of chemical substance,"yeast gene YMR316W, incubated two hours with chemical substance",1.3
same,The level of expressed mRNA in the presence of chemical substance/The level of expressed mRNA in the absence of chemical substance,"yeast gene YNL044W, incubated two hours with chemical substance",1.2
same,The level of expressed mRNA in the presence of chemical substance/The level of expressed mRNA in the absence of chemical substance,"yeast gene YNL074C, incubated two hours with chemical substance",0.6
same,The level of expressed mRNA in the presence of chemical substance/The level of expressed mRNA in the absence of chemical substance,"yeast gene YNL092W, incubated two hours with chemical substance",1.2
same,The level of expressed mRNA in the presence of chemical substance/The level of expressed mRNA in the absence of chemical substance,"yeast gene YNL115C, incubated two hours with chemical substance",1.0
same,The level of expressed mRNA in the presence of chemical substance/The level of expressed mRNA in the absence of chemical substance,"yeast gene YNL156C, incubated two hours with chemical substance",1.4
same,The level of expressed mRNA in the presence of chemical substance/The level of expressed mRNA in the absence of chemical substance,"yeast gene YNL234W, incubated two hours with chemical substance",1.5
same,The level of expressed mRNA in the presence of chemical substance/The level of expressed mRNA in the absence of chemical substance,"yeast gene YNL281W, incubated two hours with chemical substance",1.2
same,The level of expressed mRNA in the presence of chemical substance/The level of expressed mRNA in the absence of chemical substance,"yeast gene YNL305C, incubated two hours with chemical substance",1.3
same,The level of expressed mRNA in the presence of chemical substance/The level of expressed mRNA in the absence of chemical substance,"yeast gene YNR068C, incubated two hours with chemical substance",1.8
same,The level of expressed mRNA in the presence of chemical substance/The level of expressed mRNA in the absence of chemical substance,"yeast gene YOL032W, incubated two hours with chemical substance",1.3
same,The level of expressed mRNA in the presence of chemical substance/The level of expressed mRNA in the absence of chemical substance,"yeast gene YOL036W, incubated two hours with chemical substance",1.0
same,The level of expressed mRNA in the presence of chemical substance/The level of expressed mRNA in the absence of chemical substance,"yeast gene YOL047C, incubated two hours with chemical substance",1.2
same,The level of expressed mRNA in the presence of chemical substance/The level of expressed mRNA in the absence of chemical substance,"yeast gene YOL071W, incubated two hours with chemical substance",2.5
same,The level of expressed mRNA in the presence of chemical substance/The level of expressed mRNA in the absence of chemical substance,"yeast gene YOL082W, incubated two hours with chemical substance",1.4
same,The level of expressed mRNA in the presence of chemical substance/The level of expressed mRNA in the absence of chemical substance,"yeast gene YOL083W, incubated two hours with chemical substance",1.4
same,The level of expressed mRNA in the presence of chemical substance/The level of expressed mRNA in the absence of chemical substance,"yeast gene YOL117W, incubated two hours with chemical substance",1.7
same,The level of expressed mRNA in the presence of chemical substance/The level of expressed mRNA in the absence of chemical substance,"yeast gene YOL131W, incubated two hours with chemical substance",2.3
same,The level of expressed mRNA in the presence of chemical substance/The level of expressed mRNA in the absence of chemical substance,yeast gene YOL150C,5.7
same,The level of expressed mRNA in the presence of chemical substance/The level of expressed mRNA in the absence of chemical substance,"yeast gene YOL162W, incubated two hours with chemical substance",1.4
same,The level of expressed mRNA in the presence of chemical substance/The level of expressed mRNA in the absence of chemical substance,"yeast gene YOR019W, incubated two hours with chemical substance",1.4
same,The level of expressed mRNA in the presence of chemical substance/The level of expressed mRNA in the absence of chemical substance,"yeast gene YOR197W, incubated two hours with chemical substance",0.7
same,The level of expressed mRNA in the presence of chemical substance/The level of expressed mRNA in the absence of chemical substance,"yeast gene YPL087W, incubated two hours with chemical substance",1.2
same,The level of expressed mRNA in the presence of chemical substance/The level of expressed mRNA in the absence of chemical substance,"yeast gene YPL196W, incubated two hours with chemical substance",1.6
same,The level of expressed mRNA in the presence of chemical substance/The level of expressed mRNA in the absence of chemical substance,"yeast gene YPL206C, incubated two hours with chemical substance",1.1
same,The level of expressed mRNA in the presence of chemical substance/The level of expressed mRNA in the absence of chemical substance,"yeast gene YPL222W, incubated two hours with chemical substance",1.1
same,The level of expressed mRNA in the presence of chemical substance/The level of expressed mRNA in the absence of chemical substance,"yeast gene YPR023C, incubated two hours with chemical substance",0.9
same,The level of expressed mRNA in the presence of chemical substance/The level of expressed mRNA in the absence of chemical substance,"yeast gene YPR151C, incubated two hours with chemical substance",1.4
